The record followed here is patent US9981960B2, “Pyrrolidine compound and application as melanocortin receptor agonist” (MITSUBISHI TANABE PHARMA CORPORATION, priority 2014, dated 2018).

The EC50 is the concentration at which the effect is half-maximal. Higher therefore signals lower potency in that assay.

This assay addresses T1, Human MC1R (Homo sapiens, UniProt Q01726).
T1 construct: endogenous in cells; host or cells: human melanoma cell line HBL
Description: MCR agonist measurement (cAMP measurement), human MC1R agonist activity in human melanoma cell line HBL. Type of assay: cell-based. The settings on record: HBL cells; for EC50: 37° C. for 30 minutes, intracellular cAMP by fluorescence method; for Human MC1R IA %: Intrinsic Activity, vehicle cAMP = 0%, αMSH at 10^-6 M = 100%. The procedure: (1) Method for Culturing Cells
Human MC1R agonist activity measurement was carried out by using human melanoma cell line HBL. Culture of HBL: F-10 Nutrient Mixture containing 10% FCS and Penicillin-streptomycin was used in the culture.
(2) cAMP Assay and Data Calculation
Each compound solution having each concentration was mixed with cAMP assay buffer (HBSS (Hank's Balanced Salt Solution) containing 10 mM HEPES and 0.1% BSA), and dispensed into 96 well plate. HBL was suspended in cAMP assay buffer containing 0.5 mM IBMX so that the concentrate became 5×10^4/mL, dispensed into the above 96 well plate, then mixed, left to stand at 37° C. for 30 minutes, and then the intracellular […] concentration was measured by fluorescence method using Envision (ex. 320 nm, em. 590 nm and 665 nm).

T1 sequence (Q01726 whole entry): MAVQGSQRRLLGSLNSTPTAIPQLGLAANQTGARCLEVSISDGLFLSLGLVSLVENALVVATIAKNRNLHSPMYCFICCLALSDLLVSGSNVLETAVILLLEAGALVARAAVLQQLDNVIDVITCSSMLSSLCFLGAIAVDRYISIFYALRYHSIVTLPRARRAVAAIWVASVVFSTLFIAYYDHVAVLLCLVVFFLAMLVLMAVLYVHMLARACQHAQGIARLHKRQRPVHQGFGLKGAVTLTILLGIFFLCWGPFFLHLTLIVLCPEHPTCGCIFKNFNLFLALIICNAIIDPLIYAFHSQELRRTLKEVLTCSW

As for `COC[C@@H]1C[C@@H](c2ccc(C(F)(F)F)cc2N2CCC(C(=O)O)CC2)CN1C(=O)[C@]1(OC)CN(C2CCCCCC2)C[C@H]1c1ccc(OC)cc1` [Example 154], the 50% effective concentration (EC50) worked out at 1.1 nM and the “Human MC1R IA %” value came out at 85%.

On to `COc1ccc([C@@H]2CN(C(C)(C)C)C[C@@]2(F)C(=O)N2CCC(C#N)(c3ccc(C(F)(F)F)cc3-c3ccc(C(=O)O)cc3)CC2)cc1` [Example 87], for which the midpoint of the response, the EC50, lay at 56 nM and the “Human MC1R IA %” value turned out to be 90%.

Take `COC[C@H]1CN(C(=O)[C@]2(F)CN(C3CCOCC3)C[C@H]2c2ccc(OC)cc2)C[C@@H]1c1ccc(C(F)(F)F)cc1N1CCC(C#N)CC1.Cl.Cl` [Example 278, 1-{2-[(3S,4R)-1-{[(3R,4R)-3-fluoro-4-(4-methoxyphenyl)-1-(tetrahydro-2H-pyran-4-yl)pyrrolidin-3-yl]carbonyl}-4-(methoxymethyl)pyrrolidin-3-yl]-5-(trifluoromethyl)phenyl}piperidine-4-carbonitrile dihydrochloride]: it took 39 nM to reach a half-maximal effect (EC50) and the “Human MC1R IA %” value is given as 46%.

Turning to `COC[C@H]1CN(C(=O)[C@]2(F)CN([C@H]3CC[C@H](OC)CC3)C[C@H]2c2ccc(OC)cc2)C[C@@H]1c1ccc(C(F)(F)F)cc1N1CCC(C(=O)N(C)C)CC1` [Example 256], the EC50 stood at 3 nM and the “Human MC1R IA %” value is recorded as 115%.

With `COc1ccc([C@@H]2CN(C3CCCC3)C[C@@]2(F)C(=O)N2C[C@H](c3ccc(C(F)(F)F)cc3N3CCC(C(=O)O)CC3)C[C@H]2CF)cc1` [Example 299], it took 0.7 nM to reach a half-maximal effect (EC50) and the “Human MC1R IA %” value turned out to be 83%.

On to `COc1ccc([C@@H]2CN(C(C)(C)C)C[C@@]2(F)C(=O)N2C[C@H](c3ccc(C(F)(F)F)cc3N3CCC(C(=O)O)CC3)[C@@H](C#N)C2)cc1.Cl.Cl` [Example 227, 1-{2-[(3S,4R)-1-{[(3R,4R)-1-tert-butyl-3-fluoro-4-(4-methoxyphenyl)pyrrolidin-3-yl]carbonyl}-4-cyanopyrrolidin-3-yl]-5-(trifluoromethyl)phenyl}piperidine-4-carboxylic acid dihydrochloride], for which the 50% effective concentration (EC50) was 85 nM and the “Human MC1R IA %” value worked out at 114%.

For the compound `COc1ccc([C@@H]2CN(C(C)(C)C)C[C@@]2(F)C(=O)N2CCC(c3ccc(C(F)(F)F)cc3N3C[C@@H]4[C@H](C3)[C@H]4C(=O)O)CC2)cc1` [Example 94], the EC50 was 49 nM and the “Human MC1R IA %” value is 83%.

In the case of `COc1ccc([C@@H]2CN(C3CCCC3)C[C@@]2(F)C(=O)N2C[C@H](c3ccc(F)cc3N3CCC(C(=O)O)CC3)[C@@H](C)C2)cc1` [Example 100], the EC50 is 9.7 nM and the “Human MC1R IA %” value worked out at 90%.

In the case of `COc1ccc([C@@H]2CN(C3CCCC3)C[C@@]2(F)C(=O)N2C[C@H](c3ccc(C(F)(F)F)cc3N3CCC(C(=O)O)CC3)C[C@H]2CC#N)cc1` [Example 105], the “Human MC1R IA %” value is 86%.

On to `COc1ccc([C@@H]2CN(C(C)(C)C)C[C@@]2(F)C(=O)N2C[C@H](C(=O)N(C)C)[C@@H](c3ccc(C(F)(F)F)cc3N3CCC(C(=O)O)CC3)C2)cc1.Cl.Cl` [Example 226, 1-{2-[(3S,4R)-1-{[(3R,4R)-1-tert-butyl-3-fluoro-4-(4-methoxyphenyl)pyrrolidin-3-yl]carbonyl}-4-(dimethylcarbamoyl)pyrrolidin-3-yl]-5-(trifluoromethyl)phenyl}piperidine-4-carboxylic acid dihydrochloride], for which the EC50 came out at 47 nM and the “Human MC1R IA %” value came to 132%.

Take `COC[C@@H]1C[C@@H](c2ccc(Cl)cc2N2CCC(C(=O)O)CC2)CN1C(=O)[C@]1(F)CN([C@H]2CC[C@H](OC)CC2)C[C@H]1c1ccc(OC)cc1` [Example 111]: the midpoint of the response, the EC50, lay at 5.9 nM and the “Human MC1R IA %” value worked out at 83%.

On to `COC[C@H]1CN(C(=O)[C@]2(F)CN([C@H]3CC[C@H](OC)CC3)C[C@H]2c2ccc(OC)cc2)C[C@@H]1c1ccc(C(F)(F)F)cc1N1CCC(C)(C(=O)O)CC1` [Example 103], for which a half-maximal effect (EC50) was put at 14 nM and the “Human MC1R IA %” value worked out at 102%.

Consider `COc1ccc([C@@H]2CN(C3CCCC3)C[C@@]2(F)C(=O)N2CCCC(c3ccc(C(F)(F)F)cc3N3CCC(C(=O)O)CC3)C2)cc1` (single isomer, unassigned) [Example 292], for which the EC50 was found to be 217 nM and the “Human MC1R IA %” value is on record as 25%.

For the compound `CCO[C@H]1CC[C@H](N2C[C@@H](c3ccc(OC)cc3)[C@](OC)(C(=O)N3C[C@H](c4ccc(C(F)(F)F)cc4N4CCC(C(=O)O)CC4)C[C@H]3COC)C2)CC1` [Example 146], the midpoint of the response, the EC50, lay at 0.75 nM and the “Human MC1R IA %” value was found to be 118%.

For `COC[C@@H]1C[C@@H](c2ccc(C(F)(F)F)cc2N2CCC(C(=O)O)CC2)CN1C(=O)[C@]1(F)CN(C2CCC2)C[C@H]1c1ccc(OC)cc1` [Example 139], the midpoint of the response, the EC50, lay at 0.8 nM and the “Human MC1R IA %” value is 80%.

As for `COc1ccc([C@@H]2CN(C(C)(C)C)C[C@@]2(F)C(=O)N2CC(c3ccc(C(F)(F)F)cc3N3CCC(C(=O)N(C)C)CC3)C2)cc1` [Example 249], the 50% effective concentration (EC50) came out at 37 nM and the “Human MC1R IA %” value is reported as 149%.

Turning to `COc1ccc([C@@H]2CN(C3CCCC3)C[C@@]2(F)C(=O)N2C[C@H](c3ccc(C(F)(F)F)cc3N3CCC(C(=O)O)CC3)C[C@H]2CC#N)cc1` [Example 300], the “Human MC1R IA %” value was determined as 93%.

As to `COc1ccc([C@@H]2CN(C(C)(C)C)C[C@@]2(F)C(=O)N2CCC(c3ccc(C(F)(F)F)cc3-c3nc(C(=O)O)co3)CC2)cc1` [Example 79], a half-maximal response (EC50) required 67 nM and the “Human MC1R IA %” value stood at 103%.

Consider `COC[C@H]1CN(C(=O)[C@]2(F)CN(C3CCCCC3)C[C@H]2c2ccc(OC)cc2)C[C@@H]1c1ccc(C(F)(F)F)cc1N1CCC(C(=O)O)CC1` [Example 27], for which a half-maximal effect (EC50) was put at 6.5 nM and the “Human MC1R IA %” value is recorded as 78%.

Regarding `COc1ccc([C@@H]2CN(C(C)(C)C)C[C@@]2(F)C(=O)N2CCC(c3ccc(C(F)(F)F)cc3N3CCC(C(=O)NS(C)(=O)=O)CC3)CC2)cc1` [Example 274], the EC50 was found to be 7.5 nM and the “Human MC1R IA %” value stood at 89%.

For `CCC(=O)N1CCC(N2C[C@@H](c3ccc(OC)cc3)[C@](F)(C(=O)N3C[C@H](COC)[C@@H](c4ccc(C(F)(F)F)cc4N4CCC(C(=O)O)CC4)C3)C2)CC1` [Example 327], the EC50 was found to be 23 nM and the “Human MC1R IA %” value turned out to be 67%.

For the compound `COc1ccc([C@@H]2CN(C(C)(C)C)C[C@@]2(F)C(=O)N2CCC(c3ccc(C(F)(F)F)cc3C(N)=O)CC2)cc1` [Example 267], the EC50 stood at 80 nM and the “Human MC1R IA %” value is 112%.

In the case of `COc1ccc([C@@H]2CN(C(C)(C)C)C[C@@]2(F)C(=O)N2CCC(c3ccc(C(F)(F)F)cc3N3CCC(C(=O)O)CC3)CC2)c(F)c1` [Example 75], a half-maximal response (EC50) required 57 nM and the “Human MC1R IA %” value is 111%.

In the case of `COc1ccc([C@@H]2CN(C(C)(C)C)C[C@@]2(F)C(=O)N2CCC(c3ccc(C(F)(F)F)cc3N3CCN(C(C)=O)CC3)CC2)cc1.Cl.Cl` [Example 282, 1-{4-[2-(1-{[(3R,4R)-1-tert-butyl-3-fluoro-4-(4-methoxyphenyl)pyrrolidin-3-yl]carbonyl}piperidin-4-yl)-5-(trifluoromethyl)phenyl]piperazin-1-yl}ethanone dihydrochloride], the EC50 is 27 nM and the “Human MC1R IA %” value turned out to be 79%.

Take `COc1ccc([C@@H]2CN(C3CCCC3)C[C@@]2(F)C(=O)N2CCCC(c3ccc(C(F)(F)F)cc3N3CCC(C(=O)O)CC3)C2)cc1` (single isomer, unassigned) [Example 291]: the EC50 is 734 nM and the “Human MC1R IA %” value worked out at 67%.

`COc1ccc([C@@H]2CN(C(C)(C)C)C[C@@]2(F)C(=O)N2CCC(c3ccc(C(F)(F)F)cc3[C@H]3CC[C@H](C(=O)O)CC3)CC2)cc1` [Example 85]: the 50% effective concentration (EC50) amounted to 60 nM and the “Human MC1R IA %” value was found to be 75%.

Turning to `COc1ccc([C@@H]2CN(C(C)(C)C)C[C@@]2(F)C(=O)N2CCC(c3ccc(Cl)cc3N3CCC(C(=O)O)CC3)CC2)cc1` [Example 195], it took 40 nM to reach a half-maximal effect (EC50) and the “Human MC1R IA %” value came to 87%.

On to `COc1ccc([C@@H]2CN(CCCC(=O)N(C)C)C[C@@]2(F)C(=O)N2CCC(c3ccc(C(F)(F)F)cc3N3CCC(C(=O)O)CC3)CC2)cc1` [Example 304], for which a half-maximal response (EC50) required 8.7 nM and the “Human MC1R IA %” value amounted to 89%.

`COC[C@@H]1C[C@@H](c2ccc(C(F)(F)F)cc2N2CCC(C(=O)O)CC2)CN1C(=O)[C@]1(F)CN(C2CCCC2)C[C@H]1c1ccc(OC)cc1` [Example 134]: the concentration for a half-maximal effect (EC50) amounted to 0.45 nM and the “Human MC1R IA %” value was determined as 96%.

`COc1ccc([C@@H]2CN(C(C)(C)C)C[C@@]2(F)C(=O)N2CCC(c3ccc(C(F)(F)F)cc3-c3ccc(C(=O)O)cc3)CC2)cc1` [Example 77]: the EC50 was determined as 69 nM and the “Human MC1R IA %” value is given as 83%.

With `COc1ccc([C@@H]2CN(C(C)(C)C)C[C@@]2(F)C(=O)N2CCC(c3ccc(C(F)(F)F)cc3N3CCC(C(N)=O)CC3)CC2)cc1` [Example 232], the EC50 stood at 10 nM and the “Human MC1R IA %” value came out at 95%.

Take `COC[C@H]1CN(C(=O)[C@]2(F)CN(c3ccc(OC)nn3)C[C@H]2c2ccc(OC)cc2)C[C@@H]1c1ccc(C(F)(F)F)cc1N1CCC(C(=O)O)CC1` [Example 64]: a half-maximal effect (EC50) was put at 19 nM and the “Human MC1R IA %” value is given as 53%.
